Data on 1 molecule can be found in patent publication US10716869B2, “Radiolabeled macrocyclic EGFR inhibitor” (Oncodesign SA, priority 2016, dated 2020).

Data set [1] in a line: radiochemical stability in vehicle by HPLC. The data set is classed as physicochemical. Conditions: room temperature, vehicle physiologic serum/ethanol 87.5/12.5. As for the experimental part:
By this method, the final radiolabeled compound can be obtained with a radiochemical purity greater than 98% in 100-110 min with a yield that can reach 25% (decay corrected). It has been noticed that an uncompleted evaporation of the solvents used for the purification of [^18F]Fluoroethyltosylate hampers the second step and conducts to lower yields. Specific activity of productions was in the range of […]. The radiolabeled compound is stable in the conditions of formulation as radiochemical purity still greater than 95% 20 h after production with a storage at room temperature.
After radiosynthesis, the stability of the radiotracer was evaluated by HPLC both in its vehicle and in rat plasma. Compound (I) was formulated in physiologic serum/ethanol with the respective proportion 87.5/12.5 (v/v). A mixture of compounds (I) (i.e. radiolabelled) and (Ia) (i.e. cold analogue) was stable for up to 20 hours at room temperature in its vehicle, only one peak being detected at the expected retention time. In rat plasma two peaks were detected: one at 3.15 minutes and one at 8.02 minutes (corresponding to a mixture of compounds (I) and (Ia)) after an incubation at +37° C. for 4 hours.

The target of data set [2] is T1, NCI-H3255 tumor cell homogenates (activated EGFR) (Homo sapiens, UniProt P00533, L858R).
T1 construct: endogenous in cells; host or cells: NCI-H3255
T1 sequence (P00533 25-1210 L858R): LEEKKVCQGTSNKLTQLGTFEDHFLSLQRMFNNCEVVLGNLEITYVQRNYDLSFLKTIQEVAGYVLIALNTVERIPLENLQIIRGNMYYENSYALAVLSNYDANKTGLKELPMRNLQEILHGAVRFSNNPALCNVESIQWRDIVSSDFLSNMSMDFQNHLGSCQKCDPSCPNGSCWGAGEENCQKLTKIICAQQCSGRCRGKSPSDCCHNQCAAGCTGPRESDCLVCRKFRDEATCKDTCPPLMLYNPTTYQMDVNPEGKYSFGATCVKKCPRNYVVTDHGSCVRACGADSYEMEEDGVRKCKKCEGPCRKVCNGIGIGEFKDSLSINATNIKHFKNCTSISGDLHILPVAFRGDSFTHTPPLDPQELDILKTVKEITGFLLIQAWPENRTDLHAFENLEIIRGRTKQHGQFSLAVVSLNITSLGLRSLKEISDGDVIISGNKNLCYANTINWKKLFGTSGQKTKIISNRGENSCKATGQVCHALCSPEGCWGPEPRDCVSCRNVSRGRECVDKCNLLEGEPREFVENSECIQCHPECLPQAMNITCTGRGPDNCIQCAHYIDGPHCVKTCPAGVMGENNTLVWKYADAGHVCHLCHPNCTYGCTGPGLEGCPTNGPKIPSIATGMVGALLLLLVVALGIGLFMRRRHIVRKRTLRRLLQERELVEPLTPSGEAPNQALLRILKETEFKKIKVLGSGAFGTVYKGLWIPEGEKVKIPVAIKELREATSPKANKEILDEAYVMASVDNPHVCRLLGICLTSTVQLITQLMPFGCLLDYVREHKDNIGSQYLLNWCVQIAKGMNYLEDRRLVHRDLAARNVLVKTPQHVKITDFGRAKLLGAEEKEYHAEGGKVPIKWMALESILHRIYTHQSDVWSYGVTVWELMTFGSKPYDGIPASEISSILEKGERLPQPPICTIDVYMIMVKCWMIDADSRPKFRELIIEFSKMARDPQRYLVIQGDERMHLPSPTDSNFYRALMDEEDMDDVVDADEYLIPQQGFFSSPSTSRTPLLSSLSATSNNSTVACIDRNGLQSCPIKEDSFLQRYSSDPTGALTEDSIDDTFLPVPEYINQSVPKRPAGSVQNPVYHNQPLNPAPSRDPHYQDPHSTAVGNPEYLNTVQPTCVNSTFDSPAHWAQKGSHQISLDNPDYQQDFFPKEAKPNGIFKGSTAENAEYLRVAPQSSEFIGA
The data set is described as follows: binding competition on tumor cell homogenates. How it is done: (§1) FIG. 1: Binding affinity constant of Compound (II) determined in competition experiments on NCI-H3255 (A) and NCI-H441 (B) cell line extracts. NCI-H3255 and NCI-H441 cell line extracts were incubated at room temperature for 90 min with Compound (II) (0.5-0.7 nM) and with increasing concentrations of Compound (IIa) (0.05 nM to 10 μM).
(§2) The binding affinity of Compound (I) and the number of binding sites were first evaluated on NCI-H3255 and NCI-H441 tumor cell homogenates (FIG. 1). […] The number of binding sites was of the same order of magnitude (6.1±0.5×10^9 sites/μg protein).

For data set [3], the target named is T2, NCI-H441 tumor cell homogenates (activated EGFR) (Homo sapiens, UniProt P00533).
T2 construct: endogenous in cells; host or cells: NCI-H441
T2 sequence (P00533 25-1210): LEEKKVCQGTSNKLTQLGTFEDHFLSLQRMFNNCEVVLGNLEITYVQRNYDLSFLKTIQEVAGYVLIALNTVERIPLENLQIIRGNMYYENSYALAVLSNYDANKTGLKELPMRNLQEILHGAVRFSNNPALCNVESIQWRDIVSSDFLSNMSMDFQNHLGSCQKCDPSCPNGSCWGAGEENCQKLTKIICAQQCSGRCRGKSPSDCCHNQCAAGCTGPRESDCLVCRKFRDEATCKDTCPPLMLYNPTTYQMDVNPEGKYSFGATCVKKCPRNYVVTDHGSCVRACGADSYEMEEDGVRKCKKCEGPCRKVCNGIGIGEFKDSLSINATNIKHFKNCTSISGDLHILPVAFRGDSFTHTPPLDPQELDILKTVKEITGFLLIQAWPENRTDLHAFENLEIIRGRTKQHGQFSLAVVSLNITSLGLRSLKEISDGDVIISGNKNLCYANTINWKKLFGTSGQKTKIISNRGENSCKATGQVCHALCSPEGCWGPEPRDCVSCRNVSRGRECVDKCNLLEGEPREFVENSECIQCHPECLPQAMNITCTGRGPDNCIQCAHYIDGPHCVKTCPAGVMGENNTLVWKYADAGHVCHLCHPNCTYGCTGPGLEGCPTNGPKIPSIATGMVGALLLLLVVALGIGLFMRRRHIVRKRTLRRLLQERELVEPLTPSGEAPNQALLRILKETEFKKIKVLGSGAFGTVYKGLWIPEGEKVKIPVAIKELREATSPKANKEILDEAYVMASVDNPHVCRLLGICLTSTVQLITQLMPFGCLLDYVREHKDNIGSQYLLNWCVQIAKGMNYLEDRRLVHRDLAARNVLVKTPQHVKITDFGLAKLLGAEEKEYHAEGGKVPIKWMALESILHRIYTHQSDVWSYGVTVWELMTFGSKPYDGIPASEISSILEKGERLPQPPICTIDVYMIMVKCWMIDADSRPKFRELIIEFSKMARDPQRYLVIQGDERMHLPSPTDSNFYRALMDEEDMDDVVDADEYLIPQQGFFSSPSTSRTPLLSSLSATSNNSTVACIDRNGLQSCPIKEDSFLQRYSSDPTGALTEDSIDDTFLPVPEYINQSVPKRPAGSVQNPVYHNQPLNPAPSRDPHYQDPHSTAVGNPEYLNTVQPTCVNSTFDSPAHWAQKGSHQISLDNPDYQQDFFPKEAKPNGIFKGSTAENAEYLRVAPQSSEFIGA
Description: binding competition on tumor cell homogenates. As for the experimental part:
as §1, §2

A short description of data set [4]: biodistribution by ex vivo γ-counting in Sprague Dawley rats. As for the experimental part:
To evaluate the biodistribution of the pure S (II) and R (III) enantiomers compared to compound (I), dynamic PET scan imaging and ex vivo gamma counting were performed on Sprague Dawley rats. Animals were injected with the radiotracer solution diluted in NaCl 0.9% to prepare a solution of activity 4-6 MBq (gamma-counting experiments) or 11-13 MBq (PET imaging experiments) in a volume of 300-400 or 600-800 μL, respectively. Radioactivity content in all biological samples was determined with scintillation γ-counter (Cobra 4180, Perkin-Elmer Inc.).
At the light of the biodistribution data of compound (I), the biodistribution of the R (III)- and S (II)-enantiomers was assessed by γ-counting in the organs in which the accumulation of compound (I) was prominent (that is: blood, heart, kidneys, liver, stomach, small intestine and colon). Two timepoints were selected: 5 and 30 minutes post-injection. […] The higher uptakes of R enantiomer (III) and S enantiomer (II) in these organs were expected to be observed at early timepoints after injection, giving the highest signals in the γ-counter and therefore making the comparison of biodistribution data more relevant. Besides, as PET images were acquired with compound (I), PET imaging was included in the evaluation of the biodistribution of R enantiomer and S enantiomer. This gave the opportunity to had one additional timepoint at 4 hours post-injection for collection of major organs and determination of radioactivity content by ex vivo γ-counting.

Setting [5] is: read-out: binding affinity (Kd).

In general, Kd refers to the constant that tells how readily two partners part at equilibrium. In turn, `CC(C)C1NC(=O)Cc2ccc(Cl)cc2Nc2ncnc3cc(OCC[18F])c(cc23)OCCCNC1=O` (stereo not drawn) [Compound (I)] gave a Radiochemical stability in data set [1] greater than 20 h. Further, the “number of binding sites” value in data set [2] is given as 9.1±3.1×10^9 sites/μg protein; in data set [3], 6.1±0.5×10^9 sites/μg protein. In addition, the Kd in data set [2] (setting [5]) is 23.8 ± 9 nM; in data set [3] (setting [5]), 25.8 ± 11.1 nM. Besides, the uptake in liver is 1.66±0.43 % ID/g in data set [4] (5 minutes post injection) and 0.37±0.07 % ID/g in data set [4] (30 minutes post injection). For the same molecule, the entries for the “uptake in small intestine” value in data set [4] (5 minutes post injection) and in data set [4] (thirty minutes post-injection) were 0.28±0.15 % ID/g and 0.40±0.40 % ID/g, respectively. In data set [4] (5 minutes post-injection), this molecule came in with an uptake in blood of 0.13±0.02 % ID/g. The uptake in heart came to 0.91±0.12 % ID/g in data set [4] (5 minutes post-injection) and 0.23±0.05 % ID/g in data set [4] (30 minutes post-injection). Moreover, the results for the uptake in kidneys in data set [4] (5 minutes post-injection) and in data set [4] (30 minutes timepoint) were 5.07±0.30 % ID/g and 1.47±0.36 % ID/g, respectively. Also, the uptake in stomach in data set [4] (5 minutes post-injection, unit printed as %) was determined as 1.27±2.13%; in data set [4] (30 minutes timepoint), 2.72±4.75 % ID/g; in data set [4] (four hours post-injection), 0.14±0.23 % ID/g. The molecule also gave an uptake in colon in data set [4] (four hours post-injection) of 10.55±4.53 % ID/g.
